Experimental data published in paper PMC9415731, “Evaluation of PepT1 (SLC15A1) Substrate Characteristics of Therapeutic Cyclic Peptides” (Pharmaceutics, 2022).
Like-named read-outs stand apart in the source and are kept apart here. Numbered stars: 1 amine (or outer) side, 2 acyl side, 3 side chain; on linkers, the order of the positions; unused ones are H or OH. Square brackets hold non-standard residues; d marks the D form. Side chains are listed from the residue outwards. Peptide text beside a SMILES is read from it. * marks the point of attachment. Ethylenediamine = C(CN[*:2])N[*:1]; Hyp = O=C(O)[C@@H]1C[C@@H](O)CN1; Phg = N[C@H](C(=O)O)c1ccccc1; CO = O=C([*:1])[*:2]; Bn = c1ccc(C*)cc1

What was measured:
hPepT1 (SLC15A1) [1] = molecular target: T1, hPepT1 (SLC15A1) (Homo sapiens, UniProt P46059); test: Inhibition of Gly-Sar uptake in hPepT1 overexpressing CHO-K1 clones (semi-high-throughput 96-well assay); type: cell-based
T1 construct: host or cells: CHO-K1 (clones CHO-hPepT1-M5 and CHO-hPepT1-200)
T1 sequence (P46059 1-708): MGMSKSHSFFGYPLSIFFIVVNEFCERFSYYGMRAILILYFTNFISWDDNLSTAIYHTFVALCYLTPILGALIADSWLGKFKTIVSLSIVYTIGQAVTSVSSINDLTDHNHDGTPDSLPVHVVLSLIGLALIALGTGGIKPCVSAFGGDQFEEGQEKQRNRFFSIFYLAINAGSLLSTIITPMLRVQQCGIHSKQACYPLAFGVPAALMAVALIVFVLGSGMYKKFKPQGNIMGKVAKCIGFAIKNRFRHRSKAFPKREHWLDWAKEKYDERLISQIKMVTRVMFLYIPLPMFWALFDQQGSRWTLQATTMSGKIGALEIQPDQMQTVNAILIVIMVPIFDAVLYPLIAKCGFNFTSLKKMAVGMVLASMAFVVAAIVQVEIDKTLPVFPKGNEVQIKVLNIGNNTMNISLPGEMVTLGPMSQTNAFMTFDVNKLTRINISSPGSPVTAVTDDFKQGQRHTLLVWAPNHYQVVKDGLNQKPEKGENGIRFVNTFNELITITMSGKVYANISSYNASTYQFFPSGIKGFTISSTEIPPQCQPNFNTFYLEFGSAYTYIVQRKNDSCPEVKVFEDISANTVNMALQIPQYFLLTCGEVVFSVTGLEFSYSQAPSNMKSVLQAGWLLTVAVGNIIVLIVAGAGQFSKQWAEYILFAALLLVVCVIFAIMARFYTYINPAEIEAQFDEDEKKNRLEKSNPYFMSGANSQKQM
Experimental: In a second step, inhibition of hPepT1 by losartan, one of the strongest inhibitors of this transporter, was tested in both clones. Inhibition experiments were conducted as previously described at a Gly-Sar concentration of 20 µM [13]. In brief, cells were seeded in 96-well plates 1 d before the assay at a concentration of 5 × 10^4 per well. On the day of the inhibition experiment, cells were washed once with MES buffer (100 µL/well) and subsequently incubated with 20 µM Gly-Sar and losartan (0.1–5000 µM), all prepared in MES buffer. After an incubation period of 10 min at 37 °C on a rotary shaker (450 rpm), transport was terminated by removing the solution and washing the cells with ice-cold MES buffer thrice while the plate was kept on ice. Afterwards, cells were lysed in the 96-well cell culture plate with aqueous NH4OH (10%, 50 µL/well), and sample preparation was performed as described previously. Inhibition in the clone CHO-hPepT1-M5 was also tested with Gly-Pro (0.1–5000 µM) as described for losartan.
The cyclic peptides were first evaluated for hPepT1 inhibition with the semi-high-throughput assay in 96-well plates established and validated earlier, but using CHO-hPepT1-M5 instead of Caco-2 cells. Cells were seeded 2 d before the assay at a concentration of 5 × 10^4/well, and the assay was conducted as published previously. Each concentration was tested in octuplet, and each experiment performed thrice.
(§1) Nonlinear regression curves were calculated with GraphPad Prism version 9.3.1 (GraphPad Software Inc., La Jolla, CA, USA) using the four-parameter fit (sigmoidal dose-response curves with variable slope) for inhibition experiments of a one-phase association nonlinear curve fit for the Gly-Sar uptake. […] A p-value < 0.05 was considered significant.

[2] = oral, Beagle dogs; ref Sauter et al., unpublished data; cited from earlier work
hPepT1 (SLC15A1) [3] = molecular target: T1, hPepT1 (SLC15A1); test: Uptake of cyclic peptides in CHO-hPepT1-M5 cells compared with parental CHO-K1 cells, with and without Gly-Pro; type: cell-based; conditions: for hPepT1 substrate characteristics (conclusion): uptake in CHO-hPepT1-M5 vs CHO-K1 cells, with and without Gly-Pro
Experimental: For investigating the possible hPepT1 substrate characteristics of the cyclic peptides, their uptake was measured in the CHO-hPepT1-M5 clone with and without inhibition by Gly-Pro and compared with the CHO-K1 parental clone.
For each sample, 5 × 10^5 cells were suspended in 1.5 mL low-binding reaction tubes and washed once in MES buffer. Subsequently, cells were incubated in 100 µL of the respective cyclic peptide solution in MES with or without 20 mM Gly-Pro at 37 °C for 10 min on a rotary shaker (450 rpm). Cells were then washed twice with 0.4 mL ice-cold MES buffer before further proceeding as described in Section 2.8. Each concentration was tested in triplicate, and the experiment was conducted at least thrice.
Cell lysis was performed with 50 µL of 10% aqueous ammonia, and the lysates acidified with 50 µL of 20% aqueous FA to ensure stability of the peptide therapeutics during sample processing. Sample preparation and UPLC–MS/MS measurements were performed as previously described for plasma.
as §1

[4] = CHO-hPepT1-M5 cells, 20 µM Gly-Sar, inhibitor 0.1-5000 µM, MES buffer pH 6.0, 10 min, 37 °C, UPLC-MS/MS, mean ± S.E.M. of three independent experiments, each concentration in sextuplets, read-out: IC50 for inhibition of the Gly-Sar uptake

Row | Compound | IC50 (hPepT1 (SLC15A1) [1]) | Bioavailability [2] | hPepT1 substrate characteristics (conclusion) (hPepT1 (SLC15A1) [3]) | IC50 (hPepT1 (SLC15A1) [1]; [4]) | Inhibition of the Gly-Sar uptake, shape of inhibition curve (hPepT1 (SLC15A1) [1]; CHO-hPepT1-200 cells, 20 µM Gly-Sar, losartan 0.1-5000 µM, MES buffer pH 6.0, 10 min, 37 °C, compared with CHO-hPepT1-M5) | Difference in uptake between cells without (CHO-K1) and with hPepT1 overexpression (CHO-hPepT1-M5) (hPepT1 (SLC15A1) [3]; 5 x 10^5 cells in suspension, MES buffer pH 6, 10 min, 37 °C, intracellular quantification by UPLC-MS/MS, three experiments in triplicate, two-way ANOVA with Bonferroni post hoc test) | Influence of the PepT1 inhibitor Gly-Pro on the uptake (hPepT1 (SLC15A1) [3]; with or without 20 mM Gly-Pro, CHO-hPepT1-M5 and CHO-K1 cells, MES buffer pH 6, 10 min, 37 °C, UPLC-MS/MS, three experiments in triplicate)
1 | C[C@@H](O)[C@@H]1NC(=O)[C@H](CCCCN)NC(=O)[C@@H](Cc2c[nH]c3ccccc23)NC(=O)[C@H](Cc2ccccc2)NC(=O)[C@@H](NC(=O)[C@H](N)Cc2ccccc2)CSSC[C@@H](C(=O)N[C@H](CO)[C@@H](C)O)NC1=O [octreotide] | 4200 ± 1600 µM | > 1% | not transported by hPepT1 | – | – | – | –
2 | NCC(=O)N1CCC[C@H]1C(=O)O [Gly-Pro] (H-Gly-Pro-OH) | – | – | – | 196 ± 41 µM | – | – | –
3 | CCCCc1nc(Cl)c(CO)n1Cc1ccc(-c2ccccc2-c2nn[nH]n2)cc1 [losartan] | – | – | – | 37 ± 4.8 µM | the inhibition curve was much flatter | – | –
4 | NCCCC[C@@H]1NC(=O)[C@@H](Cc2c[nH]c3ccccc23)NC(=O)[C@H](c2ccccc2)NC(=O)[C@@H]2C[C@@H](OC(=O)NCCN)CN2C(=O)[C@H](Cc2ccccc2)NC(=O)[C@H](Cc2ccc(OCc3ccccc3)cc2)NC1=O [pasireotide] (cyclo([Hyp]([CO-Ethylenediamine])[Phg][dW]KY(Bn)F)) | 530 ± 110 µM | > 1% | not transported by hPepT1 | – | – | no obvious difference in the uptake | no significant influence on the uptake
